From the NIST ThermoML archive (doi:10.1016/j.jct.2015.01.004)
Values joined by “and” are separate entries in the source; they are usually repeats but may differ in a detail not shown here. Equal entries are not always repeated.

Test: molar heat capacity at constant pressure; xn = mol fraction of the nth substance listed
Settings: 100 kPa

[Si] [silicon] + [Li]
Settings | molar heat capacity at constant pressure
453.6 K, Crystal of intercomponent compound 1, Small sample (50 mg) DSC, x2 = 0.81 | 25.67 J/K/mol
460 K, Crystal of intercomponent compound 1, relaxation calorimetry + DSC, x2 = 0.81 | 25.6 J/K/mol
460 K, Crystal of intercomponent compound 2, relaxation calorimetry + DSC, x2 = 0.804 | 26.23 J/K/mol
463.31 K, Crystal of intercomponent compound 2, Small sample (50 mg) DSC, x2 = 0.804 | 26.1 J/K/mol and 26.34 J/K/mol
463.5 K, Crystal of intercomponent compound 1, Small sample (50 mg) DSC, x2 = 0.81 | 25.45 J/K/mol
463.51 K, Crystal of intercomponent compound 1, Small sample (50 mg) DSC, x2 = 0.81 | 25.78 J/K/mol
473.22 K, Crystal of intercomponent compound 2, Small sample (50 mg) DSC, x2 = 0.804 | 26.29 J/K/mol and 26.62 J/K/mol
473.42 K, Crystal of intercomponent compound 1, Small sample (50 mg) DSC, x2 = 0.81 | 25.23 J/K/mol
473.43 K, Crystal of intercomponent compound 1, Small sample (50 mg) DSC, x2 = 0.81 | 26 J/K/mol
480 K, Crystal of intercomponent compound 1, relaxation calorimetry + DSC, x2 = 0.81 | 25.91 J/K/mol
480 K, Crystal of intercomponent compound 2, relaxation calorimetry + DSC, x2 = 0.804 | 26.66 J/K/mol
483.13 K, Crystal of intercomponent compound 2, Small sample (50 mg) DSC, x2 = 0.804 | 26.48 J/K/mol and 26.77 J/K/mol
483.33 K, Crystal of intercomponent compound 1, Small sample (50 mg) DSC, x2 = 0.81 | 25.45 J/K/mol
483.34 K, Crystal of intercomponent compound 1, Small sample (50 mg) DSC, x2 = 0.81 | 26.11 J/K/mol
493.04 K, Crystal of intercomponent compound 2, Small sample (50 mg) DSC, x2 = 0.804 | 26.73 J/K/mol and 26.89 J/K/mol
493.24 K, Crystal of intercomponent compound 1, Small sample (50 mg) DSC, x2 = 0.81 | 25.56 J/K/mol
493.26 K, Crystal of intercomponent compound 1, Small sample (50 mg) DSC, x2 = 0.81 | 26.32 J/K/mol
500 K, Crystal of intercomponent compound 1, relaxation calorimetry + DSC, x2 = 0.81 | 26.22 J/K/mol
500 K, Crystal of intercomponent compound 2, relaxation calorimetry + DSC, x2 = 0.804 | 27.09 J/K/mol
502.95 K, Crystal of intercomponent compound 2, Small sample (50 mg) DSC, x2 = 0.804 | 26.84 J/K/mol and 27.04 J/K/mol
503.15 K, Crystal of intercomponent compound 1, Small sample (50 mg) DSC, x2 = 0.81 | 25.78 J/K/mol
503.17 K, Crystal of intercomponent compound 1, Small sample (50 mg) DSC, x2 = 0.81 | 26.43 J/K/mol
512.86 K, Crystal of intercomponent compound 2, Small sample (50 mg) DSC, x2 = 0.804 | 27 J/K/mol and 27.24 J/K/mol
513.06 K, Crystal of intercomponent compound 1, Small sample (50 mg) DSC, x2 = 0.81 | 25.89 J/K/mol
513.08 K, Crystal of intercomponent compound 1, Small sample (50 mg) DSC, x2 = 0.81 | 26.54 J/K/mol
520 K, Crystal of intercomponent compound 1, relaxation calorimetry + DSC, x2 = 0.81 | 26.54 J/K/mol
520 K, Crystal of intercomponent compound 2, relaxation calorimetry + DSC, x2 = 0.804 | 27.52 J/K/mol
522.77 K, Crystal of intercomponent compound 2, Small sample (50 mg) DSC, x2 = 0.804 | 27.23 J/K/mol and 27.49 J/K/mol
522.97 K, Crystal of intercomponent compound 1, Small sample (50 mg) DSC, x2 = 0.81 | 26.11 J/K/mol
522.99 K, Crystal of intercomponent compound 1, Small sample (50 mg) DSC, x2 = 0.81 | 26.76 J/K/mol
532.68 K, Crystal of intercomponent compound 2, Small sample (50 mg) DSC, x2 = 0.804 | 27.46 J/K/mol and 27.67 J/K/mol
532.88 K, Crystal of intercomponent compound 1, Small sample (50 mg) DSC, x2 = 0.81 | 26.21 J/K/mol
532.9 K, Crystal of intercomponent compound 1, Small sample (50 mg) DSC, x2 = 0.81 | 26.98 J/K/mol
540 K, Crystal of intercomponent compound 1, relaxation calorimetry + DSC, x2 = 0.81 | 26.88 J/K/mol
540 K, Crystal of intercomponent compound 2, relaxation calorimetry + DSC, x2 = 0.804 | 27.95 J/K/mol
542.58 K, Crystal of intercomponent compound 2, Small sample (50 mg) DSC, x2 = 0.804 | 27.67 J/K/mol and 27.88 J/K/mol
542.79 K, Crystal of intercomponent compound 1, Small sample (50 mg) DSC, x2 = 0.81 | 26.54 J/K/mol
542.81 K, Crystal of intercomponent compound 1, Small sample (50 mg) DSC, x2 = 0.81 | 27.31 J/K/mol
552.5 K, Crystal of intercomponent compound 2, Small sample (50 mg) DSC, x2 = 0.804 | 27.8 J/K/mol and 28 J/K/mol
552.7 K, Crystal of intercomponent compound 1, Small sample (50 mg) DSC, x2 = 0.81 | 26.76 J/K/mol
552.72 K, Crystal of intercomponent compound 1, Small sample (50 mg) DSC, x2 = 0.81 | 27.53 J/K/mol
560 K, Crystal of intercomponent compound 1, relaxation calorimetry + DSC, x2 = 0.81 | 27.23 J/K/mol
560 K, Crystal of intercomponent compound 2, relaxation calorimetry + DSC, x2 = 0.804 | 28.38 J/K/mol
562.41 K, Crystal of intercomponent compound 2, Small sample (50 mg) DSC, x2 = 0.804 | 27.97 J/K/mol and 28.24 J/K/mol
562.61 K, Crystal of intercomponent compound 1, Small sample (50 mg) DSC, x2 = 0.81 | 27.09 J/K/mol
562.63 K, Crystal of intercomponent compound 1, Small sample (50 mg) DSC, x2 = 0.81 | 27.75 J/K/mol
572.33 K, Crystal of intercomponent compound 2, Small sample (50 mg) DSC, x2 = 0.804 | 28.21 J/K/mol and 28.37 J/K/mol
572.52 K, Crystal of intercomponent compound 1, Small sample (50 mg) DSC, x2 = 0.81 | 27.31 J/K/mol
572.54 K, Crystal of intercomponent compound 1, Small sample (50 mg) DSC, x2 = 0.81 | 27.97 J/K/mol
580 K, Crystal of intercomponent compound 1, relaxation calorimetry + DSC, x2 = 0.81 | 27.6 J/K/mol
580 K, Crystal of intercomponent compound 2, relaxation calorimetry + DSC, x2 = 0.804 | 28.81 J/K/mol
582.24 K, Crystal of intercomponent compound 2, Small sample (50 mg) DSC, x2 = 0.804 | 28.41 J/K/mol and 28.65 J/K/mol
582.43 K, Crystal of intercomponent compound 1, Small sample (50 mg) DSC, x2 = 0.81 | 27.53 J/K/mol
582.45 K, Crystal of intercomponent compound 1, Small sample (50 mg) DSC, x2 = 0.81 | 28.19 J/K/mol
592.15 K, Crystal of intercomponent compound 2, Small sample (50 mg) DSC, x2 = 0.804 | 28.65 J/K/mol and 28.85 J/K/mol
592.34 K, Crystal of intercomponent compound 1, Small sample (50 mg) DSC, x2 = 0.81 | 27.86 J/K/mol
592.36 K, Crystal of intercomponent compound 1, Small sample (50 mg) DSC, x2 = 0.81 | 28.41 J/K/mol
600 K, Crystal of intercomponent compound 1, relaxation calorimetry + DSC, x2 = 0.81 | 28 J/K/mol
600 K, Crystal of intercomponent compound 2, relaxation calorimetry + DSC, x2 = 0.804 | 29.25 J/K/mol
602.06 K, Crystal of intercomponent compound 2, Small sample (50 mg) DSC, x2 = 0.804 | 28.86 J/K/mol and 29.05 J/K/mol
602.26 K, Crystal of intercomponent compound 1, Small sample (50 mg) DSC, x2 = 0.81 | 28.19 J/K/mol
602.27 K, Crystal of intercomponent compound 1, Small sample (50 mg) DSC, x2 = 0.81 | 28.63 J/K/mol
611.97 K, Crystal of intercomponent compound 2, Small sample (50 mg) DSC, x2 = 0.804 | 29.02 J/K/mol and 29.19 J/K/mol
612.17 K, Crystal of intercomponent compound 1, Small sample (50 mg) DSC, x2 = 0.81 | 28.3 J/K/mol
612.18 K, Crystal of intercomponent compound 1, Small sample (50 mg) DSC, x2 = 0.81 | 28.74 J/K/mol
620 K, Crystal of intercomponent compound 1, relaxation calorimetry + DSC, x2 = 0.81 | 28.43 J/K/mol
620 K, Crystal of intercomponent compound 2, relaxation calorimetry + DSC, x2 = 0.804 | 29.68 J/K/mol
621.88 K, Crystal of intercomponent compound 2, Small sample (50 mg) DSC, x2 = 0.804 | 29.19 J/K/mol and 29.48 J/K/mol
622.08 K, Crystal of intercomponent compound 1, Small sample (50 mg) DSC, x2 = 0.81 | 28.41 J/K/mol
622.09 K, Crystal of intercomponent compound 1, Small sample (50 mg) DSC, x2 = 0.81 | 28.96 J/K/mol
631.8 K, Crystal of intercomponent compound 2, Small sample (50 mg) DSC, x2 = 0.804 | 29.46 J/K/mol and 29.65 J/K/mol
631.99 K, Crystal of intercomponent compound 1, Small sample (50 mg) DSC, x2 = 0.81 | 28.74 J/K/mol
632.01 K, Crystal of intercomponent compound 1, Small sample (50 mg) DSC, x2 = 0.81 | 29.07 J/K/mol
640 K, Crystal of intercomponent compound 1, relaxation calorimetry + DSC, x2 = 0.81 | 28.9 J/K/mol
640 K, Crystal of intercomponent compound 2, relaxation calorimetry + DSC, x2 = 0.804 | 30.11 J/K/mol
641.71 K, Crystal of intercomponent compound 2, Small sample (50 mg) DSC, x2 = 0.804 | 29.67 J/K/mol and 29.92 J/K/mol
641.89 K, Crystal of intercomponent compound 1, Small sample (50 mg) DSC, x2 = 0.81 | 28.96 J/K/mol
641.92 K, Crystal of intercomponent compound 1, Small sample (50 mg) DSC, x2 = 0.81 | 29.29 J/K/mol
651.63 K, Crystal of intercomponent compound 2, Small sample (50 mg) DSC, x2 = 0.804 | 29.86 J/K/mol and 30.21 J/K/mol
651.81 K, Crystal of intercomponent compound 1, Small sample (50 mg) DSC, x2 = 0.81 | 29.07 J/K/mol
651.84 K, Crystal of intercomponent compound 1, Small sample (50 mg) DSC, x2 = 0.81 | 29.51 J/K/mol
